Activity calls are given as the source filed them. The calls are words filed in the database; no cut-off is given here.
Tests used:
Bacillus subtilis = assay: Antimicrobial activity against Bacillus subtilis at 5 ug/disk; type: functional, organism-based
Staphylococcus aureus = assay: Antimicrobial activity against Staphylococcus aureus at 50 ug/disk; type: functional, organism-based

C/C=C(\C)c1cc(OC)c(C)c2c1Oc1c(CO)c(O)cc(/C(C)=C/C(=O)O)c1C(=O)O2
Activity (Bacillus subtilis): Active | Activity (Staphylococcus aureus): Active

C/C=C(\C)c1cc(OC)c(C)c2c1Oc1c(C=O)c(O)cc(/C(C)=C/C(=O)O)c1C(=O)O2
Activity (Bacillus subtilis): Active | Activity (Staphylococcus aureus): Active

From ChEMBL document CHEMBL1158939, “Auranticins A and B: two new depsidones from a mangrove isolate of the fungus Preussia aurantiaca” (J Nat Prod, 1991)
